In patent US10314307B2, “(S)-abscisic acid derivatives for improving plant stress tolerance” (Valent BioSciences Corporation, priority 2015, dated 2019):

What was measured:
Assay type in all cases: in vivo
[1] = system: corn plants, 111 day, central corn belt variety; assay: Corn plant chilling (growth rate); details: for Growth Rate, Greenhouse 7-9 d post spray / Growth Rate, Greenhouse 0-2 d post spray / Growth Rate, Growth Chamber 10° C. 2-7 d post spray: Table 4 study; for Growth Rate, Greenhouse 7-9 d post spray: after chilling; for Growth Rate, Greenhouse 0-2 d post spray: before chilling; for Growth Rate, Growth Chamber 10° C. 2-7 d post spray: during chilling at 10° C.
Protocol: Corn seeds of a 111 day, central corn belt variety were planted in 2-quart pots filled with medium. After the corn grew for 10 days in the greenhouse at 24±3° C. (V2 to V3 growth stage), the plants received a foliar spray application of aqueous solutions of the test compounds containing 0.25% non-ionic surfactant with a volume equivalent to 30 gallons/acre. After spraying, plants were moved back to the greenhouse for 2 days, then moved to a growth chamber kept at 10° C. with a 16:8 light:dark cycle (cold treatment). After 5 days in the cold, plants were returned to the greenhouse for 2 days before being harvested destructively. Results of the studies comparing the growth rate of plants treated with S-ABA with 3′-methyl-(S)-ABA during the experiment are shown in Table 3. In additional studies, the effect of S-ABA and 3′-propargyl-(S)-ABA on corn growth rate in chilling studies was compared.

[2] = system: corn plants, commercial 111 day, central corn belt variety; assay: Corn stomatal conductance; details: for Average Stomatal Conductance (% of Control), 6 DAS: 6 days after spraying; for Average Stomatal Conductance (% of Control), 16 DAS: 16 days after spraying
Protocol: (§1) In this greenhouse experiment, foliar spray treatments containing 3′-methyl-(S)-abscisic acid, 3′-propargyl-(S)-abscisic acid or (S)-abscisic acid were applied to corn plants to evaluate their effect on gas exchange, as measured through stomatal conductance. Corn plants of a commercial, 111 day, central corn belt variety were grown in the greenhouse under optimal conditions for five weeks and were size-matched into ten groups of five plants. Using an aerosol sprayer, each group was sprayed to drip (25 milliliters per plant) with solutions containing a non-ionic surfactant (0.125%, v/v) and water (control), 2.5 mg, 7.5 mg or 25 mg/plant 3′-methyl-(S)-abscisic acid, or 2.5 mg, 7.5 mg or 25 mg/plant 3′-propargyl-(S)-abscisic acid, or 7.5 mg, 25 mg or 75 mg/plant (5)-ABA, respectively. After spraying, plants were returned to the greenhouse for the duration of the experiment. Stomatal conductance was measured using an AP4 porometer (Delta T Devices, Cambridge, UK) and the conductance for each plant was recorded at approximately the same time of day (˜10 AM) prior to treatment application as well as 1, 2, 5, 6, 9 and 16 days post-spraying.

[3] = system: corn plants, commercial 111 day, central corn belt variety; assay: Corn plant leaf rolling assay and shoot fresh weight under drought; details: for Shoot Fresh Weight, 15 DAS: 12 days drought then 3 days watering; for Average # of Rolled Leaves/Plant, 5 DAS / Average # of Rolled Leaves/Plant, 6 DAS / Average # of Rolled Leaves/Plant, 8 DAS: water withheld; for Average # of Rolled Leaves/Plant, 5 DAS: 5 days after spraying; for Average # of Rolled Leaves/Plant, 6 DAS: 6 days after spraying; for Average # of Rolled Leaves/Plant, 8 DAS: 8 days after spraying
Protocol: as §1, with “post-spraying. This study was conducted as described above with the following the exceptions. After spraying, plants were put back in the greenhouse and water was withheld for twelve days, simulating drought stress. The plants were then watered to saturation for three consecutive days before the plant shoots were cut at the soil surface and subsequently weighed in grams (fresh weight). Leaf-rolling data and fresh weight data were recorded for each plant following treatment application at the times specified below in Table 6.” for “post-spraying.”

soybean plants = assay: Soybean drought tolerance (stomatal conductance)
Protocol: In this study, soybean plants were grown for 10 days under ambient lab temperature conditions and illumination of 150 umol m^2 s^−1 and a 16:8 photoperiod. At spraying, the primary leaves were fully expanded and the first trifoliate leaves were partially expanded. The plants were sprayed to dampness with solutions of water, S-ABA, 3′-methyl-(S)-abscisic acid, or 3′-propargyl-(S)-abscisic acid containing 0.025% (v/v) non-ionic surfactant. At times following spraying, the conductance of the primary leaves was measured using an AP4 porometer (Delta T Devices, Cambridge, UK) to evaluate the effect on stomatal conductance. A decrease in stomatal aperture, reflected in the conductance measures, is an immediate and direct effect of applied S-ABA. To simplify the data, the controls were always set to 100%. In Table 9, the effect of spray applications on the stomatal conductance was measured.

[4] = foliar spray 30 mg/l (3.4 g/acre)
[5] = foliar spray 100 mg/l (11.4 g/acre)
[6] = foliar spray 300 mg/l (34.1 g/acre)
[7] = foliar spray 1000 mg/l (113.7 g/acre)
[8] = foliar spray 100 ppm or 2.5 mg/plant
[9] = foliar spray 300 ppm or 7.5 mg/plant
[10] = foliar spray 1000 ppm or 25 mg/plant

C#CCC1=C(C)[C@](O)(/C=C/C(C)=C\C(=O)O)C(C)(C)CC1=O [3′-propargyl-(S)-ABA, (2Z,4E)-5-((S)-1-hydroxy-2,6,6-trimethyl-4-oxo-3-(prop-2-yn-1-yl)cyclohex-2-en-1-yl)-3-methylpenta-2,4-dienoic acid]
Growth during stress recovery following cold ([1]; 3′-propargyl-(S)-ABA particularly between 11.4 and 113.7 g/acre, S-ABA at rates up to 1000 mg/liter (113.7 g/acre)): did aid growth during stress recovery | Maintenance of growth under cold (10° C.) conditions ([1]; S-ABA even at 1000 mg/l (113.7 g/acre)): did not maintain growth under cold stress | Growth Rate, Greenhouse 7-9 d post spray [1, 4]: 1.978 cm/day | Growth Rate, Greenhouse 0-2 d post spray [1, 4]: 3.239 cm/day | Growth Rate, Growth Chamber 10° C. 2-7 d post spray [1, 4]: 1.258 cm/day | Growth Rate, Greenhouse 7-9 d post spray [1, 5]: 2.489 cm/day | Growth Rate, Greenhouse 0-2 d post spray [1, 5]: 2.294 cm/day | Growth Rate, Growth Chamber 10° C. 2-7 d post spray [1, 5]: 1.173 cm/day | Growth Rate, Greenhouse 7-9 d post spray [1, 6]: 2.500 cm/day | Growth Rate, Greenhouse 0-2 d post spray [1, 6]: 2.544 cm/day | Growth Rate, Growth Chamber 10° C. 2-7 d post spray [1, 6]: 1.033 cm/day | Growth Rate, Greenhouse 7-9 d post spray [1, 7]: 2.300 cm/day | Growth Rate, Greenhouse 0-2 d post spray [1, 7]: 2.172 cm/day | Growth Rate, Growth Chamber 10° C. 2-7 d post spray [1, 7]: 0.787 cm/day | Average Stomatal Conductance (% of Control), 6 DAS [2, 8]: 80.6 % of Control | Average Stomatal Conductance (% of Control), 16 DAS [2, 8]: 87.7 % of Control | Average Stomatal Conductance (% of Control), 6 DAS [2, 9]: 74.3 % of Control | Average Stomatal Conductance (% of Control), 16 DAS [2, 9]: 77.9 % of Control | Average Stomatal Conductance (% of Control), 6 DAS [2, 10]: 56.0 % of Control | Average Stomatal Conductance (% of Control), 16 DAS [2, 10]: 59.0 % of Control | Relative potency resulting in a 25% reduction in transpiration, times that seen with S-ABA ([2]; regression of the data in Table 5): 4.83 times | Shoot Fresh Weight, 15 DAS ([3]; 100 ppm or 2.5 mg/plant): 263.9 grams | Average # of Rolled Leaves/Plant, 5 DAS ([3]; 100 ppm or 2.5 mg/plant): 1.8 | Average # of Rolled Leaves/Plant, 6 DAS ([3]; 100 ppm or 2.5 mg/plant): 3.8 | Average # of Rolled Leaves/Plant, 8 DAS ([3]; 100 ppm or 2.5 mg/plant): 7.2 | Shoot Fresh Weight, 15 DAS ([3]; 300 ppm or 7.5 mg/plant): 313.1 grams | Average # of Rolled Leaves/Plant, 5 DAS ([3]; 300 ppm or 7.5 mg/plant): 1.8 | Average # of Rolled Leaves/Plant, 6 DAS ([3]; 300 ppm or 7.5 mg/plant): 3.6 | Average # of Rolled Leaves/Plant, 8 DAS ([3]; 300 ppm or 7.5 mg/plant): 8.0 | Shoot Fresh Weight, 15 DAS ([3]; 1000 ppm or 25 mg/plant): 334.4 grams | Average # of Rolled Leaves/Plant, 5 DAS ([3]; 1000 ppm or 25 mg/plant): 0.0 | Average # of Rolled Leaves/Plant, 6 DAS ([3]; 1000 ppm or 25 mg/plant): 0.0 | Average # of Rolled Leaves/Plant, 8 DAS ([3]; 1000 ppm or 25 mg/plant): 7.0 | Reduction in stomatal conductance at 1 day post spraying (soybean plants; 300 mg/l foliar spray): 92% | Percent Conductance (stomatal conductance, control = 100%), Day 1 (soybean plants; foliar spray 300 mg/l, 0.3 mg/plant, Day 1): 8% | Percent Conductance (stomatal conductance, control = 100%), Day 2 (soybean plants; foliar spray 300 mg/l, 0.3 mg/plant, Day 2): 14% | Percent Conductance (stomatal conductance, control = 100%), Day 5 (soybean plants; foliar spray 300 mg/l, 0.3 mg/plant, Day 5): 33% | Percent Conductance (stomatal conductance, control = 100%), Day 6 (soybean plants; foliar spray 300 mg/l, 0.3 mg/plant, Day 6): 52% | Percent Conductance (stomatal conductance, control = 100%), Day 7 (soybean plants; foliar spray 300 mg/l, 0.3 mg/plant, Day 7): 57%
